Source: ChEMBL document CHEMBL3603806, “Discovery of a 6-(pyridin-3-yl)benzo[d]thiazole template for optimization of hedgehog and PI3K/AKT/mTOR dual inhibitors” (Bioorg Med Chem Lett, 2015)
Calls of active or inactive are those of the source. No cut-off for these calls is given here.

Assays:
[1] = Solubility of the compound; format: physicochemical
[2] = molecular target: T1, Phosphatidylinositol 4,5-bisphosphate 3-kinase catalytic subunit delta isoform (Homo sapiens) (UniProt O00329); assay: Inhibition of N-terminal poly-His tagged human p110-delta expressed in Sf9 cells incubated for 20 mins by alpha screen assay
T1 sequence (whole entry): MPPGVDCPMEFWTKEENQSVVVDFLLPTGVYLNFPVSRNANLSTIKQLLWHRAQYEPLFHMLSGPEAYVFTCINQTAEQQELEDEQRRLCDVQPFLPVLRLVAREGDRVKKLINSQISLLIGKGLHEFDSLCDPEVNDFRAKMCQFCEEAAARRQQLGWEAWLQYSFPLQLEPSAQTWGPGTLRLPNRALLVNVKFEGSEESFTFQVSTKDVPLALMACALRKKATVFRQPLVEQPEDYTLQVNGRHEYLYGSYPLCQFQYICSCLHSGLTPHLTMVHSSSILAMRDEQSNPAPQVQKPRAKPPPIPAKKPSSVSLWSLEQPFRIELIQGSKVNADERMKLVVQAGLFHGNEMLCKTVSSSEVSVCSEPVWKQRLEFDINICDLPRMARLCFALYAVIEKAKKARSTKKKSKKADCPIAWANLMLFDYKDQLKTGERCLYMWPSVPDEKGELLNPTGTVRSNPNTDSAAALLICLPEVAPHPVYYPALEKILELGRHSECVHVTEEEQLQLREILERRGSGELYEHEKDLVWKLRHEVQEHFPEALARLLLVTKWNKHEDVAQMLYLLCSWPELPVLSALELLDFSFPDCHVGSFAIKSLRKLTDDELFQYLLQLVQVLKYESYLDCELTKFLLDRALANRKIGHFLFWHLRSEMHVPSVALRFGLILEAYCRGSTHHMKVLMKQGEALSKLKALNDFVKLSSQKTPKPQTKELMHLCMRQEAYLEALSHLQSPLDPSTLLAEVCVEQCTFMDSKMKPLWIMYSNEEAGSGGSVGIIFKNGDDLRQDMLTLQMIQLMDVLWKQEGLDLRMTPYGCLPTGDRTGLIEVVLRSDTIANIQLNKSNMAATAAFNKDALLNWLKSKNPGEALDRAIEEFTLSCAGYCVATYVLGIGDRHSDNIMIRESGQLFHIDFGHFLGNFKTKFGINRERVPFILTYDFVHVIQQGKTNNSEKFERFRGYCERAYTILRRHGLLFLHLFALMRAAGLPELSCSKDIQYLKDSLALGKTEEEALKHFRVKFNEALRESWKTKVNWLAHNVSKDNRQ

Protein smoothened [3] = molecular target: Protein smoothened (Mus musculus, UniProt P56726); assay: Inhibition of SMO in mouse NIH/3T3 cells assessed as inhibition of SAG-induced hedgehog-mediated luminescence signaling by GRE-luciferase reporter gene assay; format: cell-based
Protein smoothened [4] = molecular target: Protein smoothened (Homo sapiens, UniProt Q99835); assay: Inhibition of human Smo expressed in human U2OS cells assessed as reduction in BODIPY-cyclopamine fluorescence signaling by competitive displacement assay; format: cell-based
[5] = molecular target: T2, Phosphatidylinositol 4,5-bisphosphate 3-kinase catalytic subunit alpha isoform (Homo sapiens, UniProt P42336); assay: Inhibition of PI3Kalpha (unknown origin) assessed as reduction in luminescence signaling at 1 uM by kinase-Glo plus luminescent kinase assay
[6] = molecular target: T2, Phosphatidylinositol 4,5-bisphosphate 3-kinase catalytic subunit alpha isoform; assay: Inhibition of PI3Kalpha (unknown origin) assessed as reduction in luminescence signaling by kinase-Glo plus luminescent kinase assay

Sequence of Protein smoothened (Mus musculus, UniProt P56726) (P56726 whole entry): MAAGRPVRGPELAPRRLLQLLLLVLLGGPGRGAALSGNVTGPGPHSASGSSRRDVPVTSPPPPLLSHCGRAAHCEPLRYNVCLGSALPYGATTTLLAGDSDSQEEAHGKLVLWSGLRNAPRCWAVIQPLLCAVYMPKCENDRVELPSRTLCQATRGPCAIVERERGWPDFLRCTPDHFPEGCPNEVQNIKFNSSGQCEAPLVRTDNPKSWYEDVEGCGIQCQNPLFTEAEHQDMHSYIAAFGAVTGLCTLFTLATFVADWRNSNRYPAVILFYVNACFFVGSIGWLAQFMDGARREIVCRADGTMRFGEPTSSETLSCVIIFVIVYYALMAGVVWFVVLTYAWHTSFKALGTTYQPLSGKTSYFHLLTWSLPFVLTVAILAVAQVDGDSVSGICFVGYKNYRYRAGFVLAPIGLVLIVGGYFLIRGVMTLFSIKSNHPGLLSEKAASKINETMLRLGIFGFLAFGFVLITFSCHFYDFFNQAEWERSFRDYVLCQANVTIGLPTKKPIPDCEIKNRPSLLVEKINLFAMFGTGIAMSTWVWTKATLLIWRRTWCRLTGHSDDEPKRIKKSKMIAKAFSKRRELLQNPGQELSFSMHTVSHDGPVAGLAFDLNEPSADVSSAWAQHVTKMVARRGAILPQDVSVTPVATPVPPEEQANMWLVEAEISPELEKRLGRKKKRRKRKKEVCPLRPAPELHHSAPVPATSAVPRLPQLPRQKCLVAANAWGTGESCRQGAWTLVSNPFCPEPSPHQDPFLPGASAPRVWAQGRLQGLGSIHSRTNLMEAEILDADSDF
T2 sequence (P42336 whole entry, canonical isoform): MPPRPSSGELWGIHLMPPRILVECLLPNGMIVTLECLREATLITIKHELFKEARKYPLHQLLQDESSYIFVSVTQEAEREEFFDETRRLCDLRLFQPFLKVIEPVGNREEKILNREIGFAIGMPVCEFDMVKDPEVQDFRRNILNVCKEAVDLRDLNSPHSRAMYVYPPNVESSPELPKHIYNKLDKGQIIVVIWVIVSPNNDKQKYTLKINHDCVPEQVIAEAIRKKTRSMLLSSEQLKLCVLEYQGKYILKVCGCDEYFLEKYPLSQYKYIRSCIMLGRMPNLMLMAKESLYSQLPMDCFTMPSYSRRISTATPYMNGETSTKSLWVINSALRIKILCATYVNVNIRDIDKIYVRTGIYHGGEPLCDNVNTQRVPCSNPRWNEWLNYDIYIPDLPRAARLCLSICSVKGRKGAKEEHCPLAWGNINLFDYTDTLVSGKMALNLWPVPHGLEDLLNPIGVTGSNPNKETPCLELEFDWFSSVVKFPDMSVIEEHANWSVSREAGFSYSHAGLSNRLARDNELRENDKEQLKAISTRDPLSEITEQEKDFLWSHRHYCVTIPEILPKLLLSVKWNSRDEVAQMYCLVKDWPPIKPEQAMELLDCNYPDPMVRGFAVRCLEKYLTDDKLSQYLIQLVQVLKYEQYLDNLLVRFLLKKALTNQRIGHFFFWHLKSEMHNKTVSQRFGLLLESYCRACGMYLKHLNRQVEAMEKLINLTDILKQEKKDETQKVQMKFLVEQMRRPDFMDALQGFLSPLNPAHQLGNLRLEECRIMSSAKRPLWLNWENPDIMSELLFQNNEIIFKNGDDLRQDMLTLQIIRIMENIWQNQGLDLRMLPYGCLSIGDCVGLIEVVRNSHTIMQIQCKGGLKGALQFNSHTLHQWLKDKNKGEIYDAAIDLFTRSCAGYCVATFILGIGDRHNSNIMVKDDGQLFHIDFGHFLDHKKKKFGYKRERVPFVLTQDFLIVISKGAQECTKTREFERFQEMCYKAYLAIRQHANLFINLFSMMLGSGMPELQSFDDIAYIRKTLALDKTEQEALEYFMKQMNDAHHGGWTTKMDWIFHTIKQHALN
Sequence of Protein smoothened (Homo sapiens, UniProt Q99835) (Q99835 whole entry, canonical isoform): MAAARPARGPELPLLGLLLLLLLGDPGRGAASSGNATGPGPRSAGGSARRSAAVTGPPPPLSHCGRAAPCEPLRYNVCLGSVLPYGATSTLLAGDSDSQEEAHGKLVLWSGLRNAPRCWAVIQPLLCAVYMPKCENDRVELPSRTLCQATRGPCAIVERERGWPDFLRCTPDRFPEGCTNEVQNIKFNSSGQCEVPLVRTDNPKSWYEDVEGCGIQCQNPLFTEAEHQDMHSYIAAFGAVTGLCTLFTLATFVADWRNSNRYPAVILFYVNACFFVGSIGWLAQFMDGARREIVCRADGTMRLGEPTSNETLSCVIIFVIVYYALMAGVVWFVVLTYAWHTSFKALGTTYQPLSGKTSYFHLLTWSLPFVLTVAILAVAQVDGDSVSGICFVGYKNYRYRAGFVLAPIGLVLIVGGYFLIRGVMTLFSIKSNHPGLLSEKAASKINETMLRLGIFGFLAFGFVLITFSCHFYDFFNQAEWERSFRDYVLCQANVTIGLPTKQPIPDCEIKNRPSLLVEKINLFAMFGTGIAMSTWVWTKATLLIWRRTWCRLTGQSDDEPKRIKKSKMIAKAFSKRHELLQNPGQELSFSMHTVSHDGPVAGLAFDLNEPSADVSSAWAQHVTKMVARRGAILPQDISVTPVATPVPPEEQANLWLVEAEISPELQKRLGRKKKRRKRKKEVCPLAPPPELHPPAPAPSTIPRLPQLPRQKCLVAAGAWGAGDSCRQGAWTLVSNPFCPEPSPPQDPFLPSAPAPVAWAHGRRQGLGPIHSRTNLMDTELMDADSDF

SMILES | IC50 (Protein smoothened [3]) [nM] | further results
CC(=O)Nc1nc2ccc(-c3cnc(Cl)c(NS(=O)(=O)c4ccc(F)cc4)c3)cc2s1 | 120 | solubility [1]: Insoluble; inhibition [2]: Active
O=C(Nc1cc(-c2ccc3nc(NCC4CC4)sc3c2)cnc1Cl)c1cccc(Cl)c1 | 190 | 
CC(=O)Nc1nc2ccc(-c3cnc(Cl)c(NCc4ccccc4)c3)cc2s1 | 940 | 
CC(=O)Nc1nc2ccc(-c3cnc(Cl)c(NC(=O)C4CC4)c3)cc2s1 | > 10000 | 
CC(=O)Nc1nc2ccc(-c3cnc(Cl)c(NC(=O)c4ccccc4)c3)cc2s1 | 64 | IC50 (Protein smoothened [4]): 5.6 nM; inhibition [5]: 9%
CC(=O)Nc1nc2ccc(-c3cnc(Cl)c(NC(=O)c4cccc(F)c4)c3)cc2s1 | 5000 | 
CC(=O)Nc1nc2ccc(-c3cnc(Cl)c(NC(=O)c4ccc(F)cc4)c3)cc2s1 | 170 | inhibition [5]: 48%
CC(=O)Nc1nc2ccc(-c3cnc(Cl)c(NC(C#N)c4ccccc4)c3)cc2s1 (configuration not stated) | 100 | IC50 [6]: 490 nM; inhibition [5]: 85%
CC(=O)Nc1nc2ccc(-c3cnc(Cl)c(NC(=O)c4ccccc4Cl)c3)cc2s1 | 4100 | 
CC(=O)Nc1nc2ccc(-c3cnc(Cl)c(NC(=O)Cc4ccccc4)c3)cc2s1 | 3400 | 
O=C(Nc1cc(-c2ccc3nc(NC4CC4)sc3c2)cnc1Cl)c1cccc(Cl)c1 | 150 | 
CC(=O)Nc1nc2ccc(-c3cnc(Cl)c(NC(=O)c4ccc(C)cc4)c3)cc2s1 | 810 | 
CC(=O)Nc1nc2ccc(-c3cnc(Cl)c(NC(=O)c4ccc(Cl)cc4)c3)cc2s1 | > 10000 | 
O=C(Nc1cc(-c2ccc3nc(NC4CC4)sc3c2)cnc1Cl)c1ccccc1 | 210 | 
O=C(Nc1cc(-c2ccc3nc(NCC4CC4)sc3c2)cnc1Cl)c1ccccc1 | 150 | 
CC(=O)Nc1nc2ccc(-c3cnc(Cl)c(NC(=O)c4cccc(Cl)c4)c3)cc2s1 | 41 | IC50 [6]: 980 nM; IC50 (Protein smoothened [4]): 10 nM; inhibition [5]: 93%
CC(=O)Nc1nc2ccc(-c3cnc(Cl)c(NC(=O)c4ccccc4F)c3)cc2s1 | > 10000 | 
